According to patent US7524866B2, “Prevention and treatment of androgen—deprivation induced osteoporosis” (GTx, Inc., priority 2001, dated 2009):

Columns and labels:
[1] = test system: orchidectomized rats (ORX); experiment: Compression test of the vertebral body (L5) (Example 4); assay type: in vivo, rat; details: for Elastic Modulus / Energy / Maximum Load / Stiffness / Toughness / Ultimate Strength: 12 weeks, vertebral body compression, mean
Method: Eight month-old male Sprague Dawley rats were either sham-operated (SHAM) or orchidectomized (ORX). Treatment began immediately following surgery. The treatment groups were as described in Table 5. Bone strength was evaluated using a compression test at the vertebral body, a three point bending test at the femoral shaft, a compression test at the distal femur and a cantilever compression test of the femoral neck. Prior to mechanical testing, all samples were thawed in cold saline and carefully cleaned of any remaining adherent soft tissue.

[2] = test system: orchidectomized (Orx/Cx) male Sprague-Dawley rats; experiment: Compression test of the distal right femur (Example 3); assay type: in vivo, rat; details: Toremifene 5 mg/kg/day; for mechanical strength parameters of the distal femur (maximum load, stiffness, ultimate strength, elastic modulus): Orx rats, 17-β-Estradiol 0.5 mg/kg/day s.c.; for Elastic Modulus / Energy / Maximum Load / Stiffness / Toughness / Ultimate Strength / CSA (cross sectional area): castrated (Cx) rats, n=5, 17-β-estradiol 0.5 mg/kg/day s.c.; for Elastic Modulus / Energy / Maximum Load / Stiffness / Toughness / Ultimate Strength: distal right femur compression; for CSA (cross sectional area): distal right femur specimen
Method: Using a Material Testing System (Model 5501R Instron Corp., Canton, Mass.), two types of mechanical testing were performed on the right femur. The load and extension curves were collected by the machine software (Merlin II, Instron Corp.). All tests were conducted using a 5 kN load cell at a constant loading rate of 6 mm/min. The general applications of the tests were as described in Turner and Burr (Bone, 1993; 14: 595-608) and Ke et al (Bone, 1998; 23, 249-255).
Compression Test of the Distal Femur
A compression test was used to determine the mechanical properties of the distal femur. The distal femur test specimen was obtained by removing a 3 mm segment directly proximal to the distal condyle using a slow speed diamond saw with constant saline irrigation. An electronic caliper was used to measure the average anterior/posterior diameter (a), medial/lateral diameter (b), and height (h) of the bone. The extrinsic parameters, maximal load (Fu), stiffness (S) and energy (W), were obtained from the load and extension curve. The following intrinsic parameters were calculated from the measured values: Cross sectional area (CSA)=(π*a*b)/4; Ultimate Strength (σ)=Fu/CSA; Elastic modulus (E)=S/(CSA/h); Toughness (T)=W/(CSA*h).

[3] = test system: RatLaps (CTX) in rat serum; experiment: CTX (RatLaps) in rat serum (Example 4); assay type: in vivo; details: Orx rats
Method: The assay was performed in duplicates, each 20 ul of serum as well as standards and control. Briefly, 100 ul of Biotinylated RatLaps Antigen was incubated 30 min in each well, strips were washed and 20 ul of Standard, Control and unknown samples were added to appropriate wells, followed by 100 ul of primary antibody (polyclonal Ab raised against a synthetic peptide EKSQDGGR specific for a part of the C-terminal telopeptide alpha 1 chain of rat type I collagen). After overnight incubation at 4 C., the wells were washed and 100 ul of Peroxidase conjugated Goat anti-Rabbit IgG Antibody was added to each well and incubated 60 min. After washing the strips 100 ul of the Chromogenic Substrate Solution was added to each well, and after 15 min the reaction was stopped and the absorbance was measured at 450 nm. The means of the duplicate absorbance determination were calculated, and a standard curve was constructed using 4-parametric logistic curve fit. Sample RatLaps concentrations were determined by interpolation.
(§1) Eight month-old male Sprague Dawley rats were either sham-operated (SHAM) or orchidectomized (ORX). Treatment began immediately following surgery. The treatment groups were as described in Table 5.

[4] = test system: orchidectomized (Orx/Cx) male Sprague-Dawley rats; experiment: Distal right femur cancellous pQCT (Example 3); assay type: in vivo, rat; details: Toremifene 5 mg/kg/day; for cancellous bone mineral content and density (Orx-induced decrease of 34%): Orx rats, 17-β-Estradiol 0.5 mg/kg/day s.c.; for Total Bone Area / Total Bone Content / Total Bone Density / Trabecular Area / Trabecular Content / Trabecular Density: castrated (Cx) rats, distal right femur pQCT, mean, n=5, 17-β-estradiol 0.5 mg/kg/day s.c.
Method: (§2) Male Sprague-Dawley rats (Harlan Sprague Dawley) were placed on study at 14-weeks of age. They were randomized and divided into five treatment groups: vehicle only (placebo, or P) after sham operation, vehicle only after orchidectomy (Orx), Toremifene (5 mg/kg/day) after sham-operation, and Toremifene after orchidectomy, and 17-β-estradiol (0.5 mg/kg/day) after orchidectomy. Test articles were delivered subcutaneously by Alzet pumps. Pumps were re-implanted every 30 days until the end of the study. Five to six animals from each group were sacrificed after 60 and 120 days of treatment, and femurs were harvested, stripped of soft tissue and muscle, and stored individually in polypropylene vials at −80° C. until analysis of bone density and mechanical strength testing. Additionally, serum was collected on days 15, 30, 60, 90 and 120, to measure markers of bone metabolism and to perform serum chemistry.
Peripheral Quantitative Computed Tomography (pQCT)
Right femurs were subjected to pQCT analysis using a Stratec XCT-RM with associated software (Stratec Medizintechnik GmbH, Pforzheim, Germany. Software version 5.40 C). Femurs were scanned at two sites, 20% and 50% of the total femoral length measured from the distal femur. The position was verified using scout views, and scan results from two 0.5 mm slices perpendicular to the long axis of the femur shaft were recorded.

Orx rat = experiment: Prostate weight in the Orx rat (Example 4); assay type: in vivo; details: Orx rat (Orx decreased prostate weight by 77%); FIG. 3
Excerpt: as §1

rat Osteocalcin in serum = experiment: Rat Osteocalcin EIA in serum, orchidectomy model (Example 3); assay type: in vivo; details: castrated rats
Method: as §2
After collection, serum was divided into 3 aliquots and stored at −80° C. until analysis. 125 ul for serum biochemistry performed by AniLytics, Gaithersburg, Md. (Bone-Specific Alkaline Phosphatase, Calcium, Phosphorus, Creatinine and Bilirubin). 100 ul for serum Rat Osteocalcin ELISA and Serum RatLaps ELISA for C-terminal telopeptides determination. The rest of the collected serum was left for repeated test if necessary.
Rat Osteocalcin EIA, Biomedical Technologies, MA
This assay is specific for rat Osteocalcin and both carboxylated and decarboxylated rat Osteocalcin are recognized. A monoclonal antibody against the N-terminal region of Osteocalcin is bound to the polystyrene wells. The assay was performed in duplicates. 100 ul of standards, control and 1 to 20 diluted samples were added to appropriate wells and incubated overnight at 4 C. After washing the strips, 100 ul of Goat polyclonal antibody of high specificity for C-terminus of rat Osteocalcin was added and incubated 60 min at 37 C. […] The reaction was stopped, and the absorbance was measured at 450 nm. […] Sample osteocalcin concentrations were determined by interpolation.

[5] = week 12, Toremifene 5 and 10 mg/kg/d, Estradiol 0.2 mg/kg/d
[6] = 28 days, E 0.2 mg/kg/d, 10 mg Tor
[7] = 42 days, E 0.2 mg/kg/d, 10 mg-Tor
[8] = up to 120 days, Toremifene 5 mg/kg/day, 17-β-estradiol 0.5 mg/kg/day s.c., FIG. 2B

## CN(C)CCOc1ccc(/C(=C(/CCCl)c2ccccc2)c2ccccc2)cc1 [Toremifene]
[1]; 5 mg/kg/d
  Elastic Modulus: 446.38 MPa
  Energy: 36.60 mJ
  Maximum Load: 238.19 N
  Stiffness: 1391.70 N/mm
  Toughness: 0.72 MJ/m^3
  Ultimate Strength: 19.08 N/mm^2
[1]; 10 mg/kg/d
  Elastic Modulus: 438.64 MPa
  Energy: 27.02 mJ
  Maximum Load: 206.48 N
  Stiffness: 1255.47 N/mm
  Toughness: 0.59 MJ/m^3
  Ultimate Strength: 18.12 N/mm^2
[1]; [5]
  ORX-induced decreases in bone strength, compression test of the vertebral body: did not prevent these changes
[1]; week 12, Toremifene at the 10 mg/kg/d dose
  ORX-induced decreases in bone strength, compression test of the vertebral body: may have worsened the changes
[2]
  mechanical strength parameters of the distal femur (maximum load, stiffness, ultimate strength, elastic modulus): improved various parameters to a level that was better than Sham-operated animals
  Elastic Modulus: 579.07 MPa
  Energy: 56.96 mJ
  Maximum Load: 467.01 N
  Stiffness: 3856.71 N/mm
  Toughness: 0.86 MJ/m³
  Ultimate Strength: 22.13 N/mm^2
  CSA (cross sectional area): 21.30 mm^2
[3]; 10 days
  CTX levels in serum: Neither E nor Tor had any effect on CTX
[3]; [6]
  CTX levels in serum: reduced the CTX levels
[3]; [7]
  CTX levels in serum: significantly lower CTX levels
[3]; 5 mg Tor
  effect on CTX: not uniform and cannot be interpreted
[4]
  cancellous bone mineral content and density (Orx-induced decrease of 34%): partially prevented this decrease
  Total Bone Area: 15.96 mm^2
  Total Bone Content: 10.69 mg/mm
  Total Bone Density: 669.74 mg/mL
  Trabecular Area: 7.18 mm^2
  Trabecular Content: 1.13 mg/mm
  Trabecular Density: 157.56 mg/mL
Orx rat
  prostate weight: no effect on prostate weight
Rat Osteocalcin in serum; 15 days (p<0.05) and 30 days (p<0.02), Toremifene 5 mg/kg/day s.c., FIG. 2A
  serum osteocalcin levels: significantly reduced the osteocalcin levels in castrated animals to intact control levels
Rat Osteocalcin in serum; [8]
  serum osteocalcin levels: significantly reduce osteocalcin levels to below that of intact control rats

## C[C@]12CC[C@@H]3c4ccc(O)cc4CC[C@H]3[C@@H]1CC[C@@H]2O [17-β-Estradiol]
[1]; 0.2 mg/kg/d
  Elastic Modulus: 589.03 MPa
  Energy: 43.60 mJ
  Maximum Load: 298.04 N
  Stiffness: 1648.17 N/mm
  Toughness: 0.94 MJ/m^3
  Ultimate Strength: 25.75 N/mm^2
[1]; [5]
  ORX-induced decreases in bone strength, compression test of the vertebral body: prevented loss of bone strength due to ORX
[2]
  mechanical strength parameters of the distal femur (maximum load, stiffness, ultimate strength, elastic modulus): statistically significant improvements in these parameter values
  Elastic Modulus: 753.44 MPa
  Energy: 58.28 mJ
  Maximum Load: 613.61 N
  Stiffness: 4842.67 N/mm
  Toughness: 0.98 MJ/m³
  Ultimate Strength: 31.23 N/mm^2
  CSA (cross sectional area): 19.75 mm^2
[3]; 10 days
  CTX levels in serum: Neither E nor Tor had any effect on CTX
[3]; [6]
  CTX levels in serum: reduced the CTX levels
[3]; [7]
  CTX levels in serum: CTX levels did not change further
[4]
  cancellous bone mineral content and density (Orx-induced decrease of 34%): fully prevent this cancellous bone loss
  Total Bone Area: 15.95 mm^2
  Total Bone Content: 11.01 mg/mm
  Total Bone Density: 690.74 mg/mL
  Trabecular Area: 7.17 mm^2
  Trabecular Content: 1.52 mg/mm
  Trabecular Density: 210.28 mg/mL
Orx rat
  prostate weight: no effect on prostate weight
Rat Osteocalcin in serum; [8]
  serum osteocalcin levels: significantly reduce osteocalcin levels to below that of intact control rats
